The subject of one data set is C57BL/6 mice. Put plainly: Hair growth in C57BL/6 mice upon topical administration (brightness score, hair weight). The class given is in vivo, mouse. How it is done: [Hair Removal and Grouping] In Day 0, 7 week old female C57BL/6 mice were anesthetized with zoletil/rompun, and the hair in the back was cut and removed with a clipper and wax, respectively. Mice with flawless (i.e. spotless) hair removal were selected and randomly assigned into three groups (7 animals per group).
[Topical Administration] The topical solutions of “ASO 1” were prepared by diluting a mother stock solution of “ASO 1” to 0.2 fM or 1 fM in aqueous 30% (v/v) ethanol supplemented with 3% (v/v) glycerin. About 100 μL of 0 (negative control), 0.2, or 1 fM “ASO 1” was topically administered in the back of each animal using a cotton ball in Days 3, 7, 10, and 14.
[Digital Image Scoring for Hair Growth] For scoring the hair growth, the animals were anesthetized and photographed by group as shown in FIG. 11A using a digital camera at a fixed value of exposure time and illumination. The digital image for the area of the hair removal for each animal was selected and digitally scored for the average brightness over the selected area using “ImageJ” program. Lower brightness score is taken as faster hair growth. Brightness scores of individual animals were combined by group, and subjected to statistical analysis by student's t-test. FIG. 11B summarizes the relative brightness scores of the ASO treated groups against the control group. The relative brightness score tended to decrease with days in the treatment groups. […] Thus, “ASO 1” was concluded to promote hair growth upon topical administrations at 1 fM.
[Scoring by Hair Weight] In Day 21, the animals were anesthetized and the hair in the back was cut with a clipper. The hair samples from individual animals were combined by group, and weighed to evaluate the hair growth between Day 0 and Day 21. The average hair weight was 70.5 mg/animal for the control group, 90.8 mg/animal for the 0.2 fM treatment group, and 94.4 mg/animal for the 1 fM treatment group. Thus “ASO 1” was concluded to promote hair growth upon topical administrations at 0.2 fM as well as 1 fM.
[Hair Removal and Grouping] In Day 0, 7 week old female C57BL/6 mice were anesthetized with zoletil/rompun, and the hair in the back was cut and removed with a clipper and wax, respectively. Mice with flawless (i.e. spotless) hair removal were selected and randomly assigned into three groups (10 animals per group).
[Topical Administration] The topical solutions of “ASO 5” were prepared by diluting a mother stock solution of “ASO 5” to 1, 5, or 25 fM in aqueous 30% (v/v) ethanol supplemented with 3% (v/v) glycerin. About 100 μL of each ASO solution or vehicle (negative control) was topically administered to in the back of an animal using a cotton ball in Days 3, 7, 10, 14 and 21.
Following the shaving in Day 21, the animals received a single topical administration of either vehicle or “ASO 5” at 1 fM, 5 fM, or 25 fM. In Day 53, the hair in the back was collected by shaving with a clipper to determine the total amount of hair growth between Days 21 and 53. The average hair weights of the 1 fM, 5 fM, and 25 fM groups were 1,630%, 1,450%, and 771% of the non-treated group, respectively. Thus “ASO 5” was concluded to promote hair growth upon topical administrations at 1 to 25 fM.
[Hair Removal and Grouping] In Day 0, 7 week old female C57BL/6 mice were anesthetized with zoletil/rompun, and the hair in the back was cut and removed with a clipper and wax, respectively. Mice with flawless (i.e. spotless) hair removal were selected and randomly assigned into three groups (9 animals per group).
[Topical Administration] The topical solutions of “ASO 10” were prepared by diluting a mother stock solution of “ASO 10” to 1, 5, or 25 fM in aqueous 30% (v/v) ethanol supplemented with 3% (v/v) glycerin. About 100 μL of each ASO solution or vehicle (negative control) was topically administered to in the back of an animal using a cotton ball in Day 2.

The next data set relates to 10-mer complementary DNA. Put plainly: Tm of duplex between PNA and 10-mer complementary DNA (UV/Vis). Particulars: 4 μM PNA and 4 μM 10-mer DNA, aqueous buffer pH 7.16, 10 mM sodium phosphate, 100 mM NaCl. Format: binding. How it is done:
The PNA derivatives in Table 1 were evaluated for their binding affinity for 10-mer DNAs complementarily targeting either the N-terminal or C-terminal. The binding affinity was assessed by Tm value for the duplex between PNA and 10-mer complementary DNA. The duplex between PNA derivatives in Table 1 and fully complementary DNAs show Tm values too high to be reliably determined in aqueous buffer solution, since the buffer solution tends to boil off during the Tm measurement.
Tm values were determined on an UV/Vis spectrometer as follows. A mixed solution of 4 μM PNA oligomer and 4 μM complementary 10-mer DNA in 4 mL aqueous buffer (pH 7.16, 10 mM sodium phosphate, 100 mM NaCl) in 15 mL polypropylene falcon tube was incubated at 90° C. for a minute and slowly cooled down to ambient temperature over several minutes. Then the solution was transferred into a 3 mL quartz UV cuvette equipped with an air-tight cap, and subjected to a Tm measurement at 260 nm on an Agilent 8453 UV/Visible spectrophotometer or a similar one as described in the prior art [PCT/KR2009/001256] or with minor modifications. The 10-mer complementary DNAs for Tm measurement were purchased from Bioneer (www.bioneer.com, Dajeon, Republic of Korea) and used without further purification.

The next data set deals with human AR mRNA. Put plainly: qPCR (SYBR Green) of AR mRNA level in MCF7 cells. Particulars: 5 hours.

The values below come from US20190345202A1, “ANDROGEN RECEPTOR ANTISENSE OLIGONUCLEOTIDES” (OliPass Corporation, priority 2016, published 2019).

[C(1O2)] = PNA monomer with modified cytosine C(1O2), structure; [A(5)] = PNA monomer with modified adenine A(5), structure; {Fethoc} = Fethoc group on PNA N-terminus; {NH2} = C-terminal amide

Regarding “Fethoc-C(1O2)TT-A(5)CC-A(5)GG(6)-CA(5)A-NH2 (antisense CTTACCAGGCAA; N-Fethoc, C-terminal amide, chemistry not fully specified) [ASO 10]”, the average hair weight in the data set with C57BL/6 mice (1 fM topical in Day 2, hair growth between Day 0 and Day 27) is reported as 115 % of the non-treated group; in the data set with C57BL/6 mice (5 fM topical in Day 2, hair growth between Day 0 and Day 27) it was 114 % of the non-treated group; in the data set with C57BL/6 mice (25 fM topical in Day 2, hair growth between Day 0 and Day 27), 119 % of the non-treated group. The “brightness score vs non-treatment group” value in the data set on C57BL/6 mice (Day 27, 1 fM and 5 fM groups, topical in Day 2) is recorded as “significantly lower”. Also, in the data set with 10-mer complementary DNA, the “Tm Value, 10-mer DNA against C-Terminal” value was 78.4 °C. Besides, the “Tm Value, 10-mer DNA against N-Terminal” value in the data set with 10-mer complementary DNA turned out to be 84.4 °C. In addition, the “decrease of relative expression level of exons 4-6” value in the data set with human AR mRNA (1 zM to 1,000 zM) was 60-80%.
“Fethoc-C(1O2)TT-A(5)CC-A(5)GG-C(1O2)AA(5)-G-NH2 (antisense CTTACCAGGCAAG; all peptide nucleic acid (PNA), [C(1O2)] at 1, 10, [A(5)] at 4, 7, 12, 5' {Fethoc}, 3' {NH2}; peptide nucleic acid, written N to C terminus) [ASO 5]”: the average hair weight is recorded as 293 % of the negative control group in the data set on C57BL/6 mice (1 fM topical, hair growth between Day 0 and Day 21); 1,630 % of the non-treated group in the data set with C57BL/6 mice (1 fM, single topical administration after shaving in Day 21, hair growth between Days 21 and 53); 306 % of the negative control group in the data set with C57BL/6 mice (5 fM topical, hair growth between Day 0 and Day 21); 1,450 % of the non-treated group in the data set with C57BL/6 mice (5 fM, single topical administration after shaving in Day 21, hair growth between Days 21 and 53); 278 % of the negative control group with C57BL/6 mice (25 fM topical, hair growth between Day 0 and Day 21); 771 % of the non-treated group with C57BL/6 mice (25 fM, single topical administration after shaving in Day 21, hair growth between Days 21 and 53). Also, the “brightness score vs non-treated group” value in the data set on C57BL/6 mice (Day 17, 1 fM and 25 fM groups, topical in Days 3, 7, 10, 14 and 21) is “significantly lower”. In addition, in the data set with 10-mer complementary DNA, the “Tm Value, 10-mer DNA against C-Terminal” value was 81.3 °C. The “Tm Value, 10-mer DNA against N-Terminal” value in the data set on 10-mer complementary DNA was 86.1 °C. The “exon message levels (exons 4-6) relative to negative control” value in the data set on human AR mRNA (1 aM) is given as “rebounded to near the levels of the negative control”. For the same substance, the “decrease of exon message levels (exons 4-6)” value in the data set with human AR mRNA (100 zM) is 50 to 60%.
